Like-named read-outs stand apart in the source and are kept apart here.
Assays:
[1] = test system: chimeric replicon with genotype 4a NS5B; assay: microbe, parasite or virus in culture; assay type: cell-based, HCV genotype 4a; details: Hepatitis C virus, read-out: 4a chimera 5% FBS EC50
[2] = biological target: T1, HCV NS5B polymerase 1b BK strain (Hepatitis C virus genotype 1b, UniProt P26663); assay: HCV NS5B polymerase enzymatic inhibition assay, strain 1b BK; assay type: biochemical; details: enzyme, strain 1b BK; read-out: HCV Polymerase Strain 1b BK IC50
T1 construct: six-histidine tag; made in house; host or cells: E. coli
T1 sequence (P26663 2420-2989): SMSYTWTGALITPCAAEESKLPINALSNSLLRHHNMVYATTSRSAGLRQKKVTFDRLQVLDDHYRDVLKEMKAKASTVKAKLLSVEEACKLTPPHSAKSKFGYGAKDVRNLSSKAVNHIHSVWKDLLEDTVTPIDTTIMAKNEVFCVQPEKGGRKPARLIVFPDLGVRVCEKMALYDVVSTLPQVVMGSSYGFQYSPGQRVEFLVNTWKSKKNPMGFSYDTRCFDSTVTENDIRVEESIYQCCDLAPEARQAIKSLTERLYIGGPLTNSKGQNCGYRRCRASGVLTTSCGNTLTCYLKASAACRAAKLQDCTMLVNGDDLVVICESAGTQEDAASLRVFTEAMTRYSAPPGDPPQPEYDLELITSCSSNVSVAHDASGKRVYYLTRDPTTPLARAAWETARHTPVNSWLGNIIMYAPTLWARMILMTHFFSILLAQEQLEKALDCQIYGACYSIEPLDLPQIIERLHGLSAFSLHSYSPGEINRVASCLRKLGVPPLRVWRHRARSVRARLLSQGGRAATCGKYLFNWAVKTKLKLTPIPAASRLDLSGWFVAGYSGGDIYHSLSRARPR
Outline: (§1)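 Incorporation of [3H]UTP (0.284 μM), alongside 20 μM each CTP and ATP, into RNA copied from a 5 nM 2.1 kb genotype 1b negative-strand template was measured after 3 h at 30° C using purified His-tagged NS5B truncated at residue 570. Product was spermine-precipitated, filtered and scintillation-counted; nonlinear regression gave IC50.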

[3] = test system: chimeric replicon with genotype 2b NS5B; assay: microbe, parasite or virus in culture; assay type: cell-based, HCV genotype 2b; details: Hepatitis C virus, read-out: 2b chimera 5% FBS EC50
[4] = test system: chimeric replicon with 2a-J6CF-derived NS5B; assay: microbe, parasite or virus in culture; assay type: cell-based, HCV genotype 2a; details: Hepatitis C virus, read-out: 2a chimera 5% FBS EC50
[5] = test system: HCV 1b-BB7 subgenomic replicon; assay: microbe, parasite or virus in culture; assay type: cell-based, HCV genotype 1b; details: Hepatitis C virus, stable replicon
[6] = biological target: T2, HCV NS5B polymerase 1a-H77 (Hepatitis C virus genotype 1a, UniProt P27958); assay: biochemical; set-up: species or system HCV genotype 1a; details: enzyme, strain 1a H77; read-out: HCV Polymerase Strain 1a H77 IC50
T2 construct: six-histidine tag; made in house; host or cells: E. coli
T2 sequence (P27958 2421-2990): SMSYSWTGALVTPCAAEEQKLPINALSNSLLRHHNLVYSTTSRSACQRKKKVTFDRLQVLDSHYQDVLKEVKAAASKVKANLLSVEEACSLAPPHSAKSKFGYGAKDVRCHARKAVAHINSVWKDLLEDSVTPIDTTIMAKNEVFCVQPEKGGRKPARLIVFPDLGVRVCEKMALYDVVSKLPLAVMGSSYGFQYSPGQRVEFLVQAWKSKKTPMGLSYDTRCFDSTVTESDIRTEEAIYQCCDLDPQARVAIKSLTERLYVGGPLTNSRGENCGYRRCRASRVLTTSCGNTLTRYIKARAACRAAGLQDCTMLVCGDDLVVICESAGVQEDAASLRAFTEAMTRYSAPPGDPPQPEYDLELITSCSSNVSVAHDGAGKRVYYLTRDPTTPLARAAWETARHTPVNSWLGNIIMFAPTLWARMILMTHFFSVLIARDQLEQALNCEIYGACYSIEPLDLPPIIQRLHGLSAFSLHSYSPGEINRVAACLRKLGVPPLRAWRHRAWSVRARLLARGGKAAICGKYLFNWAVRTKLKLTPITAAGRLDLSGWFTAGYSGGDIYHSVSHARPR
Outline: as §1

[7] = biological target: T3, HCV NS5B polymerase 1a-H77-C316Y (Hepatitis C virus genotype 1a, UniProt P27958, C2736Y); assay: biochemical; set-up: species or system HCV genotype 1a
T3 construct: six-histidine tag; made in house; host or cells: E. coli
T3 sequence (P27958 2421-2990 C2736Y): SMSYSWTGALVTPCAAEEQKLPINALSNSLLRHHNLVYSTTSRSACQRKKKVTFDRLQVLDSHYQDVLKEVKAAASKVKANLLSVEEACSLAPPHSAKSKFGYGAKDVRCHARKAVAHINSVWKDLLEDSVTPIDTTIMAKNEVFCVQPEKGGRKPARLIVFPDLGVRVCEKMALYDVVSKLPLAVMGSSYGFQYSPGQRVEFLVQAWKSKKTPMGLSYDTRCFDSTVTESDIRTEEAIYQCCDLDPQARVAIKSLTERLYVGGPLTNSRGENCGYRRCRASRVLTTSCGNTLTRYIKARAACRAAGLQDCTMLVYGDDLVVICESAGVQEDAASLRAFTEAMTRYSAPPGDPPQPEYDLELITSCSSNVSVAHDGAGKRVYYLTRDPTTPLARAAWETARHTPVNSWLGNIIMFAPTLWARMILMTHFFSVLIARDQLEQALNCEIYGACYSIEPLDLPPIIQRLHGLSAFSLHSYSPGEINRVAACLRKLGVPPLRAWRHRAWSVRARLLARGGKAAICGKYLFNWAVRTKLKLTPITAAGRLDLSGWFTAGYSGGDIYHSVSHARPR
Outline: as §1

[8] = test system: HCV NS5B polymerase 1a-H77-C316Y; assay: biochemical; set-up: species or system HCV genotype 1a; details: ratio of enzyme IC50s, 1a H77-C316Y / 1a H77
Outline: as §1

[9] = test system: HCV 1a-H77 transient subgenomic replicon in Huh-7 derived cell line; assay: microbe, parasite or virus in culture; assay type: cell-based, HCV genotype 1a; details: Hepatitis C virus, Huh-7; transient replicon, 5% FBS; read-out: Transient Replicon 1a H77 5% FBS EC50
Procedure: (§2) In addition to the stable replicon inhibition assays, transient replicon assays were performed. Transient replicons are identical to the 1a-H77 and 1a-H77-C316Y constructs, except they lack the Neo gene, making it impossible to establish stable cell lines. A T7 Megascript RNA synthesis kit (Ambion) was used to transcribe the HCV subgenomic RNA. The HCV RNA was then precipitated with lithium chloride according to manufacturer's instructions. The HCV subgenomic replicon RNA was transfected via electroporation into a Huh-7 derived cell line as described (Middleton T, et al. J. Virological Methods 2007; 145(2): 137-145). Transfected cells were diluted and plated in 96 well plates at 5×10^3 cells per well in DMEM. Four hours post-transfection, the wells from one plate were harvested for luciferase measurement. This plate provides a measure of the amount of translatable input RNA, and therefore transfection efficiency. To the wells of the remaining plates, a 3-fold dilution series of test compounds was added in DMSO (0.5% DMSO final concentration), and plates were incubated at 37° C., 5% CO2 in a humidified incubator for 4 days. After this period, the media was removed and the plates were washed with 100 μL phosphate-buffered saline per well. For the luciferase assay, 30 μL of Passive Lysis buffer (Promega) was added to each well, and then the plates were incubated for 15 minutes with rocking to lyse the cells. Luciferin solution (100 μL, Promega) was added to each well, and luciferase activity was measured with a Victor II luminometer (Perkin-Elmer). The EC50 values were calculated using GraphPad Prism 4 software.

[10] = test system: HCV 1a-H77-C316Y transient subgenomic replicon in Huh-7 derived cell line; assay: microbe, parasite or virus in culture; assay type: cell-based, HCV genotype 1a; details: for EC50: Hepatitis C virus, Huh-7, read-out: Transient Replicon 1a H77-C316Y 5% FBS EC50; for Transient Replicon Fold Resistance C316Y/1a: ratio of transient replicon EC50s, C316Y / 1a H77
Procedure: as §2

[11] = test system: chimeric replicon with genotype 3a NS5B; assay: microbe, parasite or virus in culture; assay type: cell-based, HCV genotype 3a; details: Hepatitis C virus, read-out: 3a chimera 5% FBS EC50
[12] = test system: HCV 1a-H77 subgenomic replicon; assay: microbe, parasite or virus in culture; assay type: cell-based, HCV genotype 1a; details: Hepatitis C virus, stable replicon
[13] = strain 1b BB7, 5% FBS + 40% human plasma, read-out: 1b BB7 5% FBS + 40% Human Plasma EC50
[14] = strain 1b BB7, 5% FBS, no human plasma, read-out: 1b BB7 5% FBS EC50
[15] = strain 1b BB7, 5% FBS, read-out: 1b BB7 5% FBS EC50
[16] = 5% FBS, absence of human plasma, read-out: Stable Replicon 1a H77 5% FBS EC50
[17] = strain 1a H77, 5% FBS + 40% human plasma, read-out: 1a H77 5% FBS + 40% Human Plasma EC50
[18] = strain 1a H77, 5% FBS, no human plasma, read-out: 1a H77 5% FBS EC50
[19] = strain 1a H77, 5% FBS, read-out: 1a H77 5% FBS EC50

| Structure (SMILES) | EC50 [1] [µM] | IC50 [2] [µM] | EC50 [3] [µM] | EC50 [4] [µM] | EC50 [5, 13] [µM] | EC50 [5, 14] [µM] | EC50 [5, 15] [µM] | IC50 [6] [µM] | IC50 [7] [µM] | C316Y/1a Fold Resistance [8] [fold] | EC50 [9] [µM] | EC50 [10] [µM] | Transient Replicon Fold Resistance C316Y/1a [10] [fold] | EC50 [11] [µM] | EC50 [12, 16] [µM] | EC50 [12, 17] [µM] | EC50 [12, 18] [µM] | EC50 [12, 19] [µM] |
| --- | --- | --- | --- | --- | --- | --- | --- | --- | --- | --- | --- | --- | --- | --- | --- | --- | --- | --- |
| CS(=O)(=O)N(Cc1cnc(-c2ccc3nc[nH]c3c2)s1)c1ccc2c(-c3ncc[nH]3)c(-c3ccccc3)oc2c1 [Example 3, N-{[2-(1H-benzimidazol-6-yl)-1,3-thiazol-5-yl]methyl}-N-[3-(1H-imidazol-2-yl)-2-phenyl-1-benzofuran-6-yl]methanesulfonamide] | 0.135 | 0.01 | 0.0818 | 0.0293 | 0.76 | 0.005 | 0.005 | 0.003 | 0.011 | 4 | 0.0213 | 0.109 | 5 | 0.0028 | 0.048 | 7.93 | 0.048 | 0.048 |
| CC(C)CCN(c1cc2oc(-c3ccc(F)cc3)c(-c3ncc[nH]3)c2cc1C1CC1)S(C)(=O)=O [Example 4, N-[5-cyclopropyl-2-(4-fluorophenyl)-3-(1H-imidazol-2-yl)-1-benzofuran-6-yl]-N-(3-methylbutyl)methanesulfonamide] | 0.169 | 0.011 | 0.27 | 0.156 | 0.297 | 0.025 | 0.025 | 0.0053 | 0.057 | 11 | 0.0079 | 0.0694 | 9 | 0.011 | 0.029 | 0.512 | 0.029 | 0.029 |
| CS(=O)(=O)N(CCCCO)c1cc2oc(-c3ccc(F)cc3)c(-c3ncc[nH]3)c2cc1C1CC1 [Example 5, N-[5-cyclopropyl-2-(4-fluorophenyl)-3-(1H-imidazol-2-yl)-1-benzofuran-6-yl]-N-(4-hydroxybutyl)methanesulfonamide] | 0.0322 | 0.017 | 0.0279 | 0.0289 | 0.022 | 0.00369 | 0.0037 | 0.0039 | 0.053 | 14 | 0.003 | 0.0881 | 29 | 0.0047 | 0.0032 | 0.05 | 0.00319 | 0.0032 |
| CS(=O)(=O)CCCCN(c1cc2oc(-c3ccc(F)cc3)c(-c3ncc[nH]3)c2cc1C1CC1)S(C)(=O)=O [Example 6, N-[5-cyclopropyl-2-(4-fluorophenyl)-3-(1H-imidazol-2-yl)-1-benzofuran-6-yl]-N-[4-(methylsulfonyl)butyl]methanesulfonamide] | 0.0161 | 0.016 | 0.0188 | 0.026 | 0.0362 | 0.0039 | 0.0039 | 0.0052 | 0.069 | 13 | 0.0032 | 0.105 | 33 | 0.0033 | 0.0083 | 0.0613 | 0.0083 | 0.00832 |
| CS(=O)(=O)N(CCCc1cc(O)no1)c1cc2oc(-c3ccc(F)cc3)c(-c3ncc[nH]3)c2cc1C1CC1 [Example 7, N-[5-cyclopropyl-2-(4-fluorophenyl)-3-(1H-imidazol-2-yl)-1-benzofuran-6-yl]-N-[3-(3-hydroxy-1,2-oxazol-5-yl)propyl]methanesulfonamide] | 0.162 | 0.011 | 0.178 | 0.218 | 0.106 | 0.0057 | 0.0057 | 0.003 | 0.012 | 4 | 0.0099 | 0.327 | 33 | 0.0111 | 0.015 | 0.111 | 0.015 | 0.015 |
| CC(C)CCN(c1cc2oc(-c3ccc(F)cc3)c(C3=NOCCN3)c2cc1C1CC1)S(C)(=O)=O [Example 10, N-[5-cyclopropyl-3-(5,6-dihydro-4H-1,2,4-oxadiazin-3-yl)-2-(4-fluorophenyl)-1-benzofuran-6-yl]-N-(3-methylbutyl)methanesulfonamide] | 0.192 | 0.105 | 0.303 | 0.181 | 0.171 | 0.0162 | 0.0162 | 0.007 | 0.064 | – | 0.006 | 0.0335 | 6 | 0.016 | 0.0105 | 0.134 | 0.0105 | 0.0105 |
| CS(=O)(=O)N(Cc1cnc(-c2ccc3[nH]ccc3c2)s1)c1cc2oc(-c3ccc(F)cc3)c(-c3ncc[nH]3)c2cc1C1CC1 [Example 31, N-[5-cyclopropyl-2-(4-fluorophenyl)-3-(1H-imidazol-2-yl)-1-benzofuran-6-yl]-N-{[2-(1H-indol-5-yl)-1,3-thiazol-5-yl]methyl}methanesulfonamide] | 0.084 | 0.007 | 0.151 | 0.185 | 0.201 | 0.0284 | 0.0284 | 0.0035 | 0.172 | 50 | 0.0309 | 0.828 | 27 | – | 0.0416 | 0.382 | 0.0416 | 0.0416 |
| COc1ccc(CN(c2cc3oc(-c4ccc(F)cc4)c(C4=NOC(C)N4)c3cc2C2CC2)S(C)(=O)=O)cc1 (stereo not drawn) [Example 151, N-[5-cyclopropyl-2-(4-fluorophenyl)-3-(5-methyl-4,5-dihydro-1,2,4-oxadiazol-3-yl)-1-benzofuran-6-yl]-N-(4-methoxybenzyl)methanesulfonamide] | – | 0.048 | – | – | 1.5 | 0.03 | 0.03 | 0.009 | 0.102 | 11 | 0.0332 | 2.93 | 88 | – | 0.119 | 2.28 | 0.119 | 0.119 |
